Laboratory results as given in patent US5990170A, “Therapeutic use of mono and bicarboxylic acid amides active at the peripheral cannabinoid receptor” (Lifegroup S.p.A., priority 1994, dated 1999).
Entries after “also recorded” stand apart in the source; their conditions may differ. Like-named read-outs stand apart in the source and are kept apart here.

Legend:
[1] = target: T1, CB2 receptor (RBL-2H3 cell membranes) (Rattus norvegicus, UniProt Q9QZN9); test: Saturation curve of labelled receptor agonist 3H-WIN 55,212-2 on RBL-2H3 cell membranes; format: binding; details: 0.5 to 20 nM 3H-WIN 55,212-2; 30 μg membrane proteins; 30° C., 60 min
T1 construct: Preparation of Plasmatic Membranes of RBL-2H3 Cells; endogenous in cells; host or cells: RBL-2H3 (rat basophilic leukemia) cell membranes
T1 sequence (Q9QZN9 1-360): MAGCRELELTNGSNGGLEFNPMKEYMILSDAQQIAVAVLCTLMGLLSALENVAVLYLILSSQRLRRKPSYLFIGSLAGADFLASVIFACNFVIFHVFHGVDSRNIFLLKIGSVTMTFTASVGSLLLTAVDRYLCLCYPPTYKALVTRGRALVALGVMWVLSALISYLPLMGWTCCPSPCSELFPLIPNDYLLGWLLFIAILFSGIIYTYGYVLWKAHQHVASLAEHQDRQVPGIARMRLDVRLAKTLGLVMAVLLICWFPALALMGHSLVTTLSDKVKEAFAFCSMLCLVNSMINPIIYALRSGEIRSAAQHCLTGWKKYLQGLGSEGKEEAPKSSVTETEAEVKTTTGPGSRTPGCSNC
Method: (§1) RBL-2H3 cells (100×10^6), frozen at -80° C., were thawed with 4 ml of Tris-HCl buffer solution 50 mM (pH 7.4), added with 0.25% w/v of Tripsin inhibitor, TYPE II-S: SOY BEAN® (distributed by Sigma). The cells were resuspended in the buffer and homogenized. The homogenate was centrifuged at 1500×g at 4° C. for 10 min. The supernatant obtained was collected and the precipitate was resuspended in 4 ml of the previous buffer. The resuspended precipitate was homogenized and centrifuged again at 1500×g at 4° C. for 5-10 min. The resulting supernatant was combined to the supernatant previously obtained and centrifuged at 5000×g for 10 min. After centrifugation, the supernatant was collected and further centrifuged at 40,000×g at 4° C. for 30 min. The resulting precipitate was resuspended in 0.5 ml of the buffer solution described above, with addition of 1% Bovine Serum Albumin fatty acid free. The obtained suspension was centrifuged at 40,000×g at 4° C. for 30 min. The resulting precipitate was collected and resuspended in buffer solution containing 50 mM Tris HCl, 1 mM Tris-EDTA, 3 mM MgCl2, pH 7.4, in order to obtain a proteic concentration of 1 μg/μl approx. This preparation may be used fresh, or frozen at -80° C. and utilized within few days.

RBL-2H3 cells = test: Inhibition of 3H-serotonin release induced by ADNP/DNP-HSA immunogenic stimulation in RBL-2H3 cells; format: cell-based, rat; details: for inhibition at 10 µM: RBL-2H3, 10 μM, 1% DMSO and 0.1% ethanol (Table 4), read-out: 3H-serotonin net release inhibition (%); for inhibition at 12.5 µM: RBL-2H3, read-out: 3H-serotonin net release inhibition (%), 12.5 μM
physchem = details: chloroform, organic solvent or mixture
[2] = target: T1, CB2 receptor (RBL-2H3 cell membranes); test: Competitive displacement of 3H-WIN 55,212-2 binding to RBL-2H3 cell membranes; details: for inhibition at 10 µM: read-out: % Displacement
Method: as §1
Non-radioactive WIN 55,212-2 (1 μM) was used to inhibit specific binding. […] The competitors were added to the binding mixture prior to the labelled ligand. In both cases, for an evaluation of the reference specific binding, ethanol and DMSO were added at the same final concentration to the total binding and to the aspecific one, also in the absence of competitors.
WIN 55,212-2 was used at a concentration of 3 μM, whereas the other compounds were used at a concentration of 10 μM.
Incubation was carried out in the presence of 1% DMSO. The values of Inhibitory Concentration 50 (IC50) are expressed as means ± SEM, after the number of experiments reported hereinbelow.

[3] = target: T1, CB2 receptor (RBL-2H3 cell membranes); test: as above; details: competitor 10 μM
CB1 central receptor [4] = details: result in words; Devane et al., 1992; cited from earlier work
[5] = Solubility in water and organic solvents; details: result in words
CB1 central receptor [6] = details: result in words; cited from earlier work
activated macrophages = details: result in words; Fischer-Stenger et al., 1993; cited from earlier work

With `Cc1c(C(=O)c2cccc3ccccc23)c2cccc3c2n1C(CN1CCOCC1)CO3` (stereo not drawn) [3H-WIN 55,212-2] as the compound, how does the Bmax [1] read?
The Bmax was 100 to 250 pM.

For `CCCCCCCCCCCCCCCCCC(=O)NCCO` [Example 23, N-(2-hydroxyethyl)-stearoylamide], which inhibition at 60 µM (RBL-2H3 cells; Rattus norvegicus, RBL-2H3, read-out: 3H-serotonin release inhibition %, 0.2% DMSO, 60 μM (Table 8)) is on record?
The inhibition at 60 µM was 60%.

And the inhibition at 100 µM (RBL-2H3 cells; Rattus norvegicus, RBL-2H3, read-out: 3H-serotonin release inhibition %, 1% DMSO, 100 μM (Table 8))?
The inhibition at 100 µM was 91%.

And the EC50 (RBL-2H3 cells; Rattus norvegicus, RBL-2H3, read-out: EC50, concentration inhibiting by 50% the net release of 3H serotonin, 1% DMSO, 15 minutes release period (Table 9))?
Its EC50 is 11 µM.

And the IC50 (RBL-2H3 cells; read-out: ED50, inhibition of 3H-serotonin release, + anandamide (12.5 μM) (Table 5), 15 min)?
The IC50 was 10.1 µM.

And the IC50 (RBL-2H3 cells; read-out: ED50, inhibition of 3H-serotonin release, - anandamide (Table 5), 15 min)?
The IC50 was 2.4 µM.

What about the solubility (physchem) of the same compound?
Its solubility is > 5000 µg/mL.

What does the source list for `CCCCCCCCCCCCCCCC(=O)NCCO` [Example 25, N-palmitoylethanolamide]?
IC50 [2]: 0.001 ± 0.00055 µM; inhibition at 10 µM [2]: 23%; inhibition at 10 µM (RBL-2H3 cells; Rattus norvegicus, + anandamide (12.5 μM)): 0%; inhibition at 10 µM (RBL-2H3 cells; Rattus norvegicus, - anandamide): 100%; activity at 10 µM (RBL-2H3 cells; Rattus norvegicus, RBL-2H3, 0.25 h, 10 μM (minimum effective concentration), 1% DMSO and 0.1% ethanol (Table 3), read-out: 3H-serotonin net release (%)): 0%; IC50 (RBL-2H3 cells; Rattus norvegicus, RBL-2H3, 0.25 h, 1% DMSO and 0.1% ethanol (Table 3), read-out: ED50 (the source's name)): 2.6 µM; functional effect following receptor activation (serotonin release) (RBL-2H3 cells; result in words): can inhibit the effects induced by mast cell activation and exert an effect that is higher than or comparable to the one of cannabinoids; functional effect following receptor activation (serotonin release) (RBL-2H3 cells; result in words, listed as palmitoylethanolamide): capable of functionally activating the peripheral receptor; Specific binding ([3]; 0.1% DMSO): 1103; binding to the central receptor (CB1 central receptor [4]): not able to bind to the central receptor; solubility in organic solvents [5]: in hot MetOH, CHCl3, DMSO; solubility in water [5]: insoluble

Which inhibition at 10 µM [2] does the source give for `CCCCC/C=C\C/C=C\C/C=C\C/C=C\CCCC(=O)NCCO` [anandamide, arachidonylethanolamide, reference compound] here?
The inhibition at 10 µM was 95%.

And the “binding to the peripheral receptor” value ([2]; result in words)?
The value was “able to bind to the receptor and to compete; also recorded: having binding affinity for the peripheral receptor”.

And the inhibition at 12.5 µM (RBL-2H3 cells; Rattus norvegicus, + WIN 55,212-2 (30 μm) (Table 6))?
The inhibition at 12.5 µM was 15%.

And the inhibition at 12.5 µM (RBL-2H3 cells; Rattus norvegicus, - WIN (Table 6))?
The inhibition at 12.5 µM was 7%.

What about the “3H-serotonin net release (%)” value (RBL-2H3 cells; concentration not given, 0.1% DMSO and 0.1% ethanol (Table 3), 15 min) of the same compound?
Its value is 100%.

And the “antagonism of the protective effects of cannabinoids” value (RBL-2H3 cells; result in words)?
Its value is “competitive antagonism on the peripheral receptor”.

What about the “functional effect following receptor activation (serotonin release)” value (RBL-2H3 cells; result in words) of the same compound?
Its value is “unable to affect serotonin release; also recorded: is not able to induce biological effects”.

And the Specific binding ([3]; 0.1% ethanol)?
The Specific binding was 99.

What about the “functional activation of CB1 central receptor” value (CB1 central receptor [6]) of the same compound?
Its value is “can functionally activate CB1 central receptor”.

What does the source list for `CCCCCc1cc(O)c2c(c1)OC(C)(C)[C@@H]1CCC(C)=C[C@@H]21` [Δ9-THC, Δ9-tetrahydrocannabinol, reference compound]?
activity at 25 µM (RBL-2H3 cells; Rattus norvegicus, RBL-2H3, 0.25 h, read-out: 3H-serotonin net release (%)): 27%; IC50 (RBL-2H3 cells; Rattus norvegicus, RBL-2H3, 0.25 h, read-out: ED50): 5 µM; inhibition at 25 µM (RBL-2H3 cells; Rattus norvegicus, RBL-2H3, read-out: 3H-serotonin net release inhibition (%), 25 μM, - anandamide (Table 4)): 73%; functional effect following receptor activation (serotonin release) (RBL-2H3 cells; result in words): able to inhibit, in a concentration-dependent way, RBL cells immunogenic activation; effect on cytolytic activity of activated macrophages (activated macrophages): decreases the cytolytic activity of activated macrophages
